The record followed here is patent publication US9090565B2, “1-pyridazinyl-hydroxyimino-3-phenyl-propanes” (Hoffmann-La Roche Inc., priority 2011, dated 2015).

Structures are written as SMILES.

As usually defined, the EC50 is the concentration needed to bring the measured effect to its halfway point. Low readings indicate a more potent agent, high ones a less potent agent.

The experiment concerns the target T1, human GPBAR1 receptor (Homo sapiens, UniProt Q8TDU6).
T1 construct: expressed in transfected cells
T1 sequence (Q8TDU6 1-330): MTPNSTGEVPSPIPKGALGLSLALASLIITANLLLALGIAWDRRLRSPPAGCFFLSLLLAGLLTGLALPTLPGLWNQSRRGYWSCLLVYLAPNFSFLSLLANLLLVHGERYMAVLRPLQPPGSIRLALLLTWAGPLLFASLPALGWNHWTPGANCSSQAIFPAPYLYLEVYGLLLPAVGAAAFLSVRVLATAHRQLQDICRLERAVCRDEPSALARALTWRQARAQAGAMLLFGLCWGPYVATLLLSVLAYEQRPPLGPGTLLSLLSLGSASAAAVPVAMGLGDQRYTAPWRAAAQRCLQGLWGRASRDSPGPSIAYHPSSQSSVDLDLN
As to the kind of experiment: functional cAMP assay in CHO-dhfr(minus) cells expressing human GPBAR1 receptors. The format is cell-based. Particulars: TR-FRET, 30 min at 30° C. The text has this:
The cDNA of the human GPBAR1 receptor (Genbank: NM_170699 with the exception of a silent C:G mutation at position 339 from the start codon) was amplified by polymerase chain reaction (PCR) from human cDNA and inserted into pCineo (Promega) by standard methods (Current Protocols in Molecular Biology, Wiley Press, ed. Ausubel et al.). The final clone was verified by DNA sequence analysis. The plasmid was transfected into CHO cells deficient in dihydrofolate reductase activity (CHO-dhfr-) using Lipofectamine plus (Invitrogen). Clones were isolated in limited dilution conditions and identified by activities in the cAMP assay using lithocholic acid as agonist. A clonal cell line displaying the greatest activity in cAMP increases was selected and identified as giving consistently good responses for up to at least 20 passages.
CHO-dhfr(minus) cells expressing human GPBAR1 receptors are seeded 17-24 hours prior to the experiment 50,000 cells per well in a black 96 well plate with flat clear bottom (Corning Costar #3904) in DMEM (Invitrogen No. 31331), 1×HT supplement, with 10% fetal calf serum and incubated at 5% CO2 and 37° C. in a humidified incubator. The growth medium was exchanged with Krebs Ringer Bicarbonate buffer with 1 mM IBMX and incubated at 30° C. for 30 min. Compounds were added to a final assay volume of 100 μl and incubated for 30 min at 30° C. The assay was stopped by the addition of 50 μl lysis reagent (Tris, NaCl, 1.5% Triton X100, 2.5% NP40, 10% NaN3) and 50 μl detection solutions (20 μM mAb Alexa700-cAMP 1:1, and 48 μM Ruthenium-2-AHA-cAMP) and shaked for 2 h at room temperature. The time-resolved energy transfer is measured by a TRF reader (Evotec Technologies GrmbH, Hamburg Germany), equipped with a ND:YAG laser as excitation source. The plate is measured twice with the excitation at 355 nm and at the emission with a delay of 100 ns and a gate of 100 ns, total exposure time 10 s at 730 (bandwidth 30 nm) or 645 nm (bandwidth 75 nm), respectively. The measured signal at 730 nm has to be corrected for the ruthenium background, the direct excitation of Alexa and the buffer control. The FRET signal is calculated as follows: FRET=T730−Alexa730-P(T645−B645) with P=Ru730−B730/Ru645−B645, where T730 is the test well measured at […], T645 is the test well measured at 645 nm, B730 and B645 are the buffer controls at 730 nm and 645 nm, respectively, cAMP content is determined from the function of a standard curve spanning from 10 μM to 0.13 nM cAMP.
EC50 values were determined using Activity Base analysis (ID Business Solution, Limited). The EC50 values for a wide range of bile acids generated from this assay were in agreement with the values published in the scientific literature. Specificity for GPBAR1 was tested in non-transfected CHO cells in the same assay as above.
In general terms: Changes in cAMP serve as a functional read-out for many G protein-coupled receptors.

For the molecule `Cc1ccccc1[C@@H](C/C(=N\O)c1ccc(=O)[nH]n1)c1ccc(Br)cc1` [Example 14, (S,E)-6-(3-(4-Bromophenyl)-1-(hydroxyimino)-3-o-tolylpropyl)pyridazin-3(2H)-one], the EC50 worked out at 648 nM. The figure for `Cc1ccccc1[C@H](C/C(=N\O)c1ccc(=O)n(C)n1)c1ccc(Br)cc1` [Example 7, (R,E)-6-(3-(4-Bromophenyl)-1-(hydroxyimino)-3-o-tolylpropyl)-2-methylpyridazin-3(2H)-one] is 6 nM; for `Cc1ccccc1C(C/C(=N\O)c1ccnnc1)c1ccc(C2CCN(S(C)(=O)=O)CC2)cc1` (centres unmarked) [Example 3, (E)-3-(4-(1-(methylsulfonyl)piperidin-4-yl)phenyl)-1-(pyridazin-4-yl)-3-o-tolylpropan-1-one oxime] it is 956 nM.

On to `Cc1ccccc1[C@H](C/C(=N\O)c1ccn[nH]c1=O)c1ccc(C2CCN(S(C)(=O)=O)CC2)cc1` [Example 12, (R,E)-4-(1-(Hydroxyimino)-3-(4-(1-(methylsulfonyl)piperidin-4-yl)phenyl)-3-o-tolylpropyl)pyridazin-3(2H)-one], for which a half-maximal response (EC50) required 527 nM.

`COc1nnccc1/C(C[C@H](c1ccc(C2CCN(S(C)(=O)=O)CC2)cc1)c1ccccc1C)=N/O` [Example 11, (R,E)-1-(3-Methoxypyridazin-4-yl)-3-(4-(1-(methylsulfonyl)piperidin-4-yl)phenyl)-3-o-tolylpropan-1-one oxime] displayed an EC50 of 52 nM. The same measure for `COc1nnccc1/C(C[C@@H](c1ccc(Br)cc1)c1ccccc1C)=N/O` [Example 4, (S,E)-3-(4-bromophenyl)-1-(3-methoxypyridazin-4-yl)-3-o-tolylpropan-1-one oxime]: 31 nM; for `Cc1ccccc1[C@H](C/C(=N\O)c1ccc(=O)n(C)n1)c1ccc(S(C)(=O)=O)cc1` [Example 10, (R,E)-6-(1-(Hydroxyimino)-3-(4-(methylsulfonyl)phenyl)-3-o-tolylpropyl)-2-methylpyridazin-3(2H)-one]: 60 nM; for `Cc1ccccc1[C@H](C/C(=N\O)c1ccc(=O)n(C)n1)c1ccc(C2CCN(S(C)(=O)=O)CC2)cc1` [Example 8, (R,E)-6-(1-(Hydroxyimino)-3-(4-(1-(methylsulfonyl)piperidin-4-yl)phenyl)-3-o-tolylpropyl)-2-methylpyridazin-3(2H)-one]: 33 nM.

With `Cc1ccccc1[C@@H](C/C(=N\O)c1ccnn(C)c1=O)c1ccc(Br)cc1` [Example 6, (S,E)-4-(3-(4-Bromophenyl)-1-(hydroxyimino)-3-o-tolylpropyl)-2-methylpyridazin-3(2H)-one], the 50% effective concentration (EC50) is 90 nM. Take `Cc1ccccc1C(C/C(=N\O)c1ccnnc1)c1ccc(-c2ccc(C(=O)O)cc2)cc1` (centres unmarked) [Example 2, (E)-4′-(3-(hydroxyimino)-3-(pyridazin-4-yl)-1-o-tolylpropyl)biphenyl-4-carboxylic acid]: a half-maximal effect (EC50) was put at 1560 nM.

On to `Cc1ccccc1[C@H](C/C(=N\O)c1ccnn(C)c1=O)c1ccc(C2CCN(S(C)(=O)=O)CC2)cc1` [Example 13, (R,E)-4-(1-(Hydroxyimino)-3-(4-(1-(methylsulfonyl)piperidin-4-yl)phenyl)-3-o-tolylpropyl)-2-methylpyridazin-3(2H)-one], for which the response was half-maximal at 179 nM (EC50). The same measure for `Cc1ccccc1[C@H](C/C(=N\O)c1ccc(=O)n(C)n1)c1ccc(-c2ccc(C(=O)O)cc2)cc1` [Example 9, (R,E)-4′-(3-(Hydroxyimino)-3-(1-methyl-6-oxo-1,6-dihydropyridazin-3-yl)-1-o-tolylpropyl)biphenyl-4-carboxylic acid]: 61 nM; for `Cc1ccccc1[C@@H](C/C(=N\O)c1ccn[nH]c1=O)c1ccc(Br)cc1` [Example 5, (S,E)-4-(3-(4-Bromophenyl)-1-(hydroxyimino)-3-o-tolylpropyl)pyridazin-3(2H)-one]: 148 nM.

`Cc1ccccc1[C@H](C/C(=N\O)c1ccnnc1)c1ccc(Br)cc1` [Example 1, (R,E)-3-(4-Bromophenyl)-1-(pyridazin-4-yl)-3-o-tolylpropan-1-one oxime] registered an EC50 of 80 nM.
